Source: patent publication US11739093B2, “Substituted pyrazolopyrazines, imidazopyrazines and [1,2,4]triazolopyrazines as allosteric SHP2 inhibitors” (Revolution Medicines, Inc., priority 2017, dated 2023)

Molecular target: SHP2 (Homo sapiens (Human), UniProt Q06124)
Assay: SHP2 Allosteric Inhibition Assay
Type: biochemical
Conditions: 0.2 nM SHP2 with 0.5 μM Activating Peptide 1 or 2; surrogate substrate DiFMUP; prompt fluorescence, kinetic read
From the text: Without wishing to be bound by theory, SHP is allosterically activated through binding of bis-tyrosyl-phosphorylated peptides to its Src Homology 2 (SH2) domains. The latter activation step leads to the release of the auto-inhibitory interface of SHP2, which in turn renders the SHP2 protein tyrosine phosphatase (PTP) active and available for substrate recognition and reaction catalysis. The catalytic activity of SHP2 was monitored using the surrogate substrate DiFMUP in a prompt fluorescence assay format.
The phosphatase reactions were performed at room temperature in 96-well black polystyrene plate, flat bottom, non-binding surface (Corning, Cat #3650) using a final reaction volume of 100 μL and the following assay buffer conditions: 50 mM HEPES, pH 7.2, 100 mM NaCl, 0.5 mM EDTA, 0.05% P-20, 1 mM DTT.
The inhibition of SHP2 by compounds of the disclosure (concentrations varying from 0.00005-10 μM) was monitored using an assay in which 0.2 nM of SHP2 was incubated with 0.5 μM of Activating Peptide 1 (sequence: H2N-LN(pY)IDLDLV(dPEG8)LST(pY)ASINFQK-amide) or Activating Peptide 2 (sequence: H2N-LN(pY)AQLWHA(dPEG8)LTI(pY)ATIRRF-amide). After 30-60- minutes incubation at 25° C., the surrogate substrate DiFMUP (Invitrogen, Cat #D6567) was added to the reaction and activity was determined by a kinetic read using a microplate reader (Envision, Perkin-Elmer or Spectramax M5, Molecular Devices). The excitation and emission wavelengths were 340 nm and 450 nm, respectively. Initial rates were determined from a linear fit of the data, and the inhibitor dose response curves were analyzed using normalized IC50 regression curve fitting with control based normalization.

Chain of SHP2 (Q06124 whole entry): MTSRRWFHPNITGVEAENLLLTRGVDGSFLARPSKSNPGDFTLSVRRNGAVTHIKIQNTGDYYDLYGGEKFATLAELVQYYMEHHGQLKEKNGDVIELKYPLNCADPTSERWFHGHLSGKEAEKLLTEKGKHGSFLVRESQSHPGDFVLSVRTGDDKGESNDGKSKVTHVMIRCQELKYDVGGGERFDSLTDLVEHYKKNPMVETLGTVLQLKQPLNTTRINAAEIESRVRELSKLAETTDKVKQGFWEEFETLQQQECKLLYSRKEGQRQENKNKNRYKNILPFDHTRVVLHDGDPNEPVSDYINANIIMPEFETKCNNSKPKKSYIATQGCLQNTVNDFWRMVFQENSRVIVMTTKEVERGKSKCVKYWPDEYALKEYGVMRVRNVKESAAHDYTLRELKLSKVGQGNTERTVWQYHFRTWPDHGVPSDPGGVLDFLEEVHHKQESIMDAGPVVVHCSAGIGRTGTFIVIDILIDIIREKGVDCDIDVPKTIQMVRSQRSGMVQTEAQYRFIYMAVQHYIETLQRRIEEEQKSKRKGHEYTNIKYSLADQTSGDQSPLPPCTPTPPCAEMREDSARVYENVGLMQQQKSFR

| SMILES | IC50 [µM] |
| --- | --- |
| C[C@@H]1OCC2(CCN(c3ncc(Sc4ccnc(N)c4Cl)c4ncncc34)CC2)[C@@H]1N [Compound 16, (3S,4S)-8-{8-[(2-amino-3-chloropyridin-4-yl)sulfanyl]pyrido[4,3-d]pyrimidin-5-yl}-3-methyl-2-oxa-8-azaspiro[4.5]decan-4-amine] | 0.083 |
| Cc1nc(N2CCC(C)(N)CC2)c2cncn2c1-c1cccc(Cl)c1Cl [Compound 2, 1-(5-(2,3-dichlorophenyl)-6-methylimidazo[1,5-a]pyrazin-8-yl)-4-methylpiperidin-4-amine] | 0.19 |
| CC1(N)CCN(c2ncc(Sc3ccnc(N)c3Cl)c3nsnc23)CC1 [Compound 15, 4-((4-(4-amino-4-methylpiperidin-1-yl)-[1,2,5]thiadiazolo[3,4-c]pyridin-7-yl)thio)-3-chloropyridin-2-amine] | 0.34 |
| Cc1nc(N2CCC3(CC2)CO[C@@H](C)[C@H]3N)c2nccn2c1Sc1ccnc(N)c1Cl [Compound 6, (3S,4S)-8-{5-[(2-amino-3-chloropyridin-4-yl)sulfanyl]-6-methylimidazo[1,2-a]pyrazin-8-yl}-3-methyl-2-oxa-8-azaspiro[4.5]decan-4-amine] | 1.1 |
